Test results published in US9957209B2, “Use of quinone methides as antipolymerants for vinylic monomers” (Ecolab USA Inc., priority 2015, dated 2018).

Assay: Static antipolymerant screening: polystyrene formed in heated, inhibitor-free styrene (ASTM D2121 methanol precipitation, absorbance at 420 nm)
Conditions: 0.33 mmolal antipolymerant in styrene, 122° C., anaerobic
Protocol: The antipolymerant performance of the isolated cinnamyl quinone methide, 2,6-di-tert-butyl-4-(3-phenylallylidene)cyclohexa-2,5-dienone (7-Cinn-QM), was determined using the static method whereby a 0.31 mM (0.33 mmolal) solution of the retarder was prepared in inhibitor-free styrene. To start with, 4-tert-butylcatechol (TBC) was removed by eluting styrene through alumina. To prepare a 0.31 mM solution of 7-Cinn-QM, 0.0264 g were dissolved in freshly de-inhibited styrene to give a solution of 250 grams. Into twenty-four Ace Glass #15 threaded pressure tubes equipped with PTFE screw caps and fluoroelastomer (FETFE) O-rings, 9 mL of the solution were charged into each tube. To purge as much oxygen out of the solutions as possible, each solution was sparged with nitrogen for 2 minutes. Immediately after sparging each solution, the tube was sealed and the solution kept under a nitrogen gas overhead. […] After 30 minutes, and every 15 minutes thereafter, four tubes were retrieved from the block and the polymerization reaction quenched by cooling in an ice bath. The cooled polymer solutions were immediately diluted with toluene.
To measure the amount of polymer formed, methanol was used to precipitate the polymer in accordance with the ASTM D2121 method. The absorbance of the polymer-methanol admixtures were measured at 420 nm. Using a calibration curve, the polymer concentrations in each of the tubes was measured and the four data points for each time were averaged.
For comparative purpose, 0.0243 g of 7-Ph-QM were dissolved in 350 g of inhibitor-free styrene after which the antipolymerant performance was tested according to the procedure in Example 3.
Similarly, a styrene solution comprising 0.155 mmolal of 7-Ph-QM and 0.155 mmolal of 7-Cinn-QM was used to screen the performance of the combination in accordance with the procedure in Example 3.

Molecule	Polystyrene (%) (Time 30)	Polystyrene (%) (Time 45)	Polystyrene (%) (Time 60)	Polystyrene (%) (Time 75)	Polystyrene (%) (Time 90)	Polystyrene (%) (Time 105)	Polystyrene (%) (Time 120)	Polystyrene (%) (Time 135)
CC(C)(C)C1=CC(=CC=Cc2ccccc2)C=C(C(C)(C)C)C1=O [7-Cinn-QM, 2,6-di-tert-butyl-4-(3-phenylallylidene)cyclohexa-2,5-dienone]	0.05	0.20	0.41	0.88	1.54	3.39	5.13	7.07
7-Phenyl Quinone Methide [7-Ph-QM]	0.13	0.49	0.89	1.08	1.37	1.56	2.4	3.4
